Measured values published in patent US11266616B2, “Compositions and methods for inhibiting kinase activity” (BRANDEIS UNIVERSITY, priority 2016, dated 2022).
Changes are numbered by the printed parent chain.

How the values were obtained:
[1] = target: T1, dephosphorylated Aurora A kinase (Homo sapiens, UniProt O14965); test: Isothermal titration calorimetry (ITC) binding to dephosphorylated Aurora A kinase
T1 construct: Codon-optimized Aurora A^122-403 in pET28a and untagged λPP in T7-7 plasmid were co-transformed in BL21(DE3) cells; inferred from pET28a and the NiNTA column) (cleaved yes); made in house; host or cells: E. coli BL21(DE3), co-expressed with lambda protein phosphatase
T1 sequence (O14965 122-403): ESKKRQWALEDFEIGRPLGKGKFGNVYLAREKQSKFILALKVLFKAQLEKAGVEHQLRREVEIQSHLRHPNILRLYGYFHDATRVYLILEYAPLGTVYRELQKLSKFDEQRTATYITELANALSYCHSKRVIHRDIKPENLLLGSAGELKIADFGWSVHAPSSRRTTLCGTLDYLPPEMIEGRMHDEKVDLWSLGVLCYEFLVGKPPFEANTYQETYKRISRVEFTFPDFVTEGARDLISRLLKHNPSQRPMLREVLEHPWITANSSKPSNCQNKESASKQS
Description: (§1) Titrations were carried out using Nano ITC isothermal titration calorimeter (TA Instruments) and analyzed via the NanoAnalyze software using the independent fit model. Injectant was added in 1 μl volume, every 180 s, with a constant stirring speed at 350 rpm and at 25° C. Prior to ITC titration, both protein and TPX2 or monobody were dialyzed/resuspended in ITC buffer (20 mM TrisHCl, 200 mM NaCl, 3% (vol/vol) glycerol, 1 mM TCEP, pH 7.50).

[2] = system: dephosphorylated Aurora A kinase-TPX2 chimera; test: ITC binding to dephosphorylated Aurora A kinase-TPX2 chimera; design: species or system human; details: PIF pocket occupied by TPX2; relative to Aurora A kinase alone
Description: as §1

Aurora A kinase [3] = target: T2, Aurora A kinase (Homo sapiens, UniProt O14965); test: In vitro kinase assay (HPLC-based / ATP/NADH-coupled) of peptide substrate phosphorylation; format: biochemical; details: phosphorylated Aurora A, AP peptide, FIG. 20
T2 construct: Codon-optimized Aurora A^122-403 in pET28a and untagged λPP in T7-7 plasmid were co-transformed in BL21(DE3) cells; inferred from pET28a and the NiNTA column) (cleaved yes); made in house; host or cells: E. coli BL21(DE3)
T2 sequence (O14965 122-403): T1 sequence (O14965 122-403)
Description: (§2) Aurora A, either phosphorylated/dephosphorylated wild type or mutant protein, was mixed with either AP ([…]) (SEQ ID NO: 5), Kemptide (LRRASLG) (SEQ ID NO: 6), or Lats2 ([…]) (SEQ ID NO: 7), in the absence or presence of 50 μM TPX2 in kinase buffer (20 mM TrisHCl, 200 mM NaCl, 3% [vol/vol] glycerol, 20 mM MgCl2, 1 mM TCEP, pH 7.50). These substrates comprise the consensus sequence for Aurora A ([R/K/N]—R—X—[S/T]-B where B is any hydrophobic residue with the exception of Pro) (Ferrari et al., 2005, Biochem. J., 390(Pt 1):293-302; Ohashi et al., 2006, Oncogene, 25:7691-7702; Sardon et al., 2010, EMBO Reports, 11:977-984). Peptides were ordered through Genscript. For HPLC-based activity assays the following protocol was used. The reaction was initiated with the addition of 5 mM ATP. Then 5 μl time points were collected, resuspended in 10 μl 6% (vol/vol) trichloroacetic acid (in water) to quench the reaction, and neutralized with 50 μl 100 mM KH2PO4, pH 8.0 to provide the appropriate pH for nucleotide separation. The mixture was then passed through a 0.22 μm SpinX column to remove any protein precipitation. Reverse phase-high performance liquid chromatography (RP-HPLC) and an ACE 5 C18-AR, 100 Å pore size column, were used to separate nucleotides as well as peptides. For nucleotide runs, 2 μl of the aforementioned mixture was sufficient for analysis, whereas for the peptide runs the optimal injection volume was 20 μl. Nucleotide runs were routinely performed to ensure no unproductive hydrolysis was occurring during the experiment. An isocratic elution run in 100 mM KH2PO4, pH 6.0 was performed for this purpose. For the peptide runs, a gradient of 0-30% of elution buffer lasting 10 min at 0.4 mL/min was sufficient to separate phosphorylated from non-phosphorylated species. The running buffer was 0.1% TFA (vol/vol) in water, while the elution buffer was 100% acetonitrile. Lastly, to ensure full saturation of Aurora A by TPX2 and test these proteins were well behaved, a dose-dependence curve of the effect of TPX2 on Aurora A was obtained.
(§3) For ATP/NADH-coupled assay-based reaction, the following protocol was used. Phosphorylation of different concentrations of Lats2 peptide was monitored using the ATP/NADH coupled assay in a 96-well plate format. Reactions were carried in the presence of 1 μM dephosphorylated or 0.05 μM phosphorylated Aurora and 5 mM ATP in assay buffer (20 mM TrisHCl, 200 mM NaCl, 20 mM MgCl2, 10% (v/v) glycerol, 1 mM TCEP, pH 7.50) at 25° C.

Aurora A kinase [4] = target: T3, Aurora A kinase (Homo sapiens, UniProt O14965, T288V); test: as above; format: biochemical; details: dephosphorylated Aurora A (T288V mutant), AP peptide, FIG. 20
T3 construct: Codon-optimized Aurora A^122-403 in pET28a and untagged λPP in T7-7 plasmid were co-transformed in BL21(DE3) cells; made in house; host or cells: E. coli BL21(DE3)
T3 sequence (O14965 122-403 T288V): T1 sequence (O14965 122-403) with T167V
Description: as §2, §3

## CO[C@@H](C(=O)N1Cc2[nH]nc(NC(=O)c3ccc(N4CCN(C)CC4)cc3)c2C1)c1ccccc1 [danusertib, reference compound]
[1]; Aurora A pre-saturated with activating monobody Mb54 (aka Mb1), FIG. 10C
  weakening of binding affinity of danusertib: 19 fold
[1]; Aurora A pre-saturated with inhibiting monobody Mb60 (aka Mb2), FIG. 10C
  tightening of binding affinity of danusertib: 4.7 fold
[1]; saturating levels of PS48 vs none
  binding of danusertib to Aurora A tighter in the presence of PS48: about 2 times
[2]
  binding of danusertib to Aurora A kinase chimera weaker than binding to Aurora A kinase: about 4 times

## TPX2: naturally occurring allosteric activator of Aurora A kinase, binds the PIF pocket (MSQVKSSYSYDAPSDFINFSSLDDEGDTQNIDSWFEEKANLENKL) [reference compound]
Aurora A kinase [3]
  effect of TPX2 binding on kinase activity: only slightly increased
Aurora A kinase [4]
  effect of TPX2 binding on kinase activity: greatly increased
